Assay results from ChEMBL document CHEMBL1149656, “Respiratory syncytial virus fusion inhibitors. Part 6: an examination of the effect of structural variation of the benzimidazol-2-one heterocycle moiety” (Bioorg Med Chem Lett, 2007).

Assays:
[1] = system: Respiratory syncytial virus; assay: Antiviral activity against RSV Long in Hep2 cells; type: functional, organism-based; conditions: human respiratory syncytial virus, HEp-2
[2] = Cytotoxicity against human Hep2 cells; type: cell-based, HEp-2
[3] = system: Respiratory syncytial virus; assay: Antiviral activity against RSV Long with F1 protein K349R mutation in Hep2 cells; type: functional, organism-based; conditions: hep-2
[4] = Metabolic stability in human liver microsomes; type: ADME, Microsome
[5] = system: Respiratory syncytial virus; assay: Reduction of viral RNA in lungs of RSV-infected BALB/c mouse at 50 mg/kg by RT-PCR method; type: functional, Lung

O=C(O)Cn1c(=O)c2ccccc2n(Cc2nc3ccccc3n2CCn2cnnn2)c1=O
EC50 [1]: 5240 nM
CC50 [2]: 213000 nM

CN1C(=O)N(Cc2nc3ccccc3n2CCCCF)c2ccccc2S1(=O)=O
EC50 [1]: 37 nM
CC50 [2]: 87700 nM

CCOC(=O)c1c(OC)c(=O)n(Cc2nc3ccccc3n2CCCCF)c2ccccc12
EC50 [1]: 147 nM
CC50 [2]: 61600 nM

CS(=O)(=O)CCCn1c(Cn2c(=O)n(CC(F)(F)F)c(=O)c3ccccc32)nc2cc(CN)ccc21
EC50 [1]: 21 nM
CC50 [2]: > 123000 nM
EC50 [3]: 500 nM

CC(C)CCn1c(CN2C(=O)C(=O)c3ccccc32)nc2ccccc21
EC50 [1]: 230 nM
CC50 [2]: 69800 nM

CCOC(=O)Cn1c(=O)c2ccccc2n(Cc2nc3ccccc3n2CCC(C)C)c1=O
EC50 [1]: 1860 nM
CC50 [2]: 16600 nM

CC(C)CCn1c(CN2C(=O)C(CC(=O)N(C)C)c3ccccc32)nc2ccccc21 (centres undefined)
EC50 [1]: 205 nM
CC50 [2]: 4670 nM

O=c1c(O)cc2ccccc2n1Cc1nc2ccccc2n1CCCCF
EC50 [1]: > 274000 nM
CC50 [2]: 20200 nM

O=C(O)c1c(O)c(=O)n(Cc2nc3ccccc3n2CCCCF)c2ccccc12
EC50 [1]: 25900 nM
CC50 [2]: > 38600 nM

CC1(C)C(=O)N(Cc2nc3ccccc3n2CCCCF)c2ccccc2S1(=O)=O
EC50 [1]: 7670 nM
CC50 [2]: 158000 nM

NCc1ccc2c(c1)nc(Cn1c(=O)n(C3CC3)c(=O)c3ccccc31)n2CCCCF
EC50 [1]: 9 nM
CC50 [2]: 40600 nM
EC50 [3]: > 500 nM
half-life [4]: > 1.67 h
log10 TCID50 [5]: 1.4

CC(C)CCn1c(Cn2c(=O)n(C3CC3)c(=O)c3ccccc32)nc2cc(CN)ccc21
EC50 [1]: 11 nM
CC50 [2]: 8580 nM

CC(C)CCn1c(Cn2c(=O)n(C3CC3)c(=O)c3ccccc32)nc2cc(C(=O)O)ccc21
EC50 [1]: > 68700 nM
CC50 [2]: 102000 nM

O=c1c(Br)cc2ccccc2n1Cc1nc2ccccc2n1CCCCF
EC50 [1]: 788 nM
CC50 [2]: 26200 nM

CN1C(=O)N(Cc2nc3ccccc3n2CCCS(C)(=O)=O)c2ccccc2S1(=O)=O
EC50 [1]: 5730 nM
CC50 [2]: 34500 nM

Cn1c(=O)c2ccccc2n(Cc2nc3ccccc3n2CCCCF)c1=O
EC50 [1]: 36 nM
CC50 [2]: > 25900 nM

COC(=O)c1ccc2c(c1)nc(Cn1c(=O)n(C3CC3)c(=O)c3ccccc31)n2CCC(C)C
EC50 [1]: > 217000 nM
CC50 [2]: 230 nM

CCc1cc2ccccc2n(Cc2nc3ccccc3n2CCCCF)c1=O
EC50 [1]: 902 nM
CC50 [2]: 85100 nM

COC(=O)c1ccc(Cn2c(=O)c3ccccc3n(Cc3nc4ccccc4n3CCC(C)C)c2=O)cc1
EC50 [1]: 260 nM
CC50 [2]: 11200 nM

NCc1ccc2c(c1)nc(Cn1c(=O)n(C3CC3)c(=O)c3ccccc31)n2CCCCO
EC50 [1]: 18 nM
CC50 [2]: > 181000 nM
EC50 [3]: > 500 nM
half-life [4]: > 1.67 h
log10 TCID50 [5]: 0.45

O=C1CSc2ccccc2N1Cc1nc2ccccc2n1CCCCF
EC50 [1]: 1020 nM
CC50 [2]: > 96400 nM

N#CCCCCn1c(CN2C(=O)CS(=O)(=O)c3ccccc32)nc2ccccc21
EC50 [1]: 1340 nM
CC50 [2]: > 270000 nM

N#CCCCCn1c(CN2C(=O)CCc3ccccc32)nc2ccccc21
EC50 [1]: 1110 nM
CC50 [2]: 27100 nM

CCOC(=O)Cn1c(=O)c2ccccc2n(Cc2nc3ccccc3n2CCn2cnnn2)c1=O
EC50 [1]: 288 nM
CC50 [2]: 8060 nM

CC(C)CCn1c(CN2C(=O)C(C)(O)c3ccccc32)nc2ccccc21 (centres undefined)
EC50 [1]: 97 nM
CC50 [2]: 101000 nM

CC(C)CCn1c(CN2C(=O)C(Cc3ccccc3)C(=O)c3ccccc32)nc2ccccc21 (centres undefined)
EC50 [1]: 1810 nM
CC50 [2]: 20100 nM

CNCc1ccc2c(c1)nc(Cn1c(=O)n(C3CC3)c(=O)c3ccccc31)n2CCC(C)C
EC50 [1]: 788 nM
CC50 [2]: 17900 nM

N#CCCCn1c(Cn2c(=O)oc3ccccc32)nc2ccccc21
EC50 [1]: 2510 nM
CC50 [2]: > 300000 nM

COc1cc(=O)n(Cc2nc3cc(CN)ccc3n2CCCCO)c2ccccc12
EC50 [1]: 8 nM
CC50 [2]: 81500 nM
EC50 [3]: > 500 nM

NCc1ccc2c(c1)nc(Cn1c(=O)n(CC(F)(F)F)c(=O)c3ccccc31)n2CCCCF
EC50 [1]: 8 nM
CC50 [2]: 11800 nM
EC50 [3]: > 500 nM
half-life [4]: > 1.67 h
log10 TCID50 [5]: 1.6

CC(C)CCn1c(CN2C(=O)C(O)c3ccccc32)nc2ccccc21 (centres undefined)
EC50 [1]: 164 nM
CC50 [2]: 3310 nM

N#CCCCn1c(Cn2c(=O)n(C3CC3)c(=O)c3ccccc32)nc2ccccc21
EC50 [1]: 171 nM
CC50 [2]: 9050 nM
EC50 [3]: > 500 nM

O=c1ccc2ccccc2n1Cc1nc2ccccc2n1CCCCF
EC50 [1]: 2300 nM
CC50 [2]: 103000 nM

O=c1c2ccccc2n(Cc2nc3ccccc3n2CCCCF)c(=O)n1C1CC1
EC50 [1]: 50 nM
CC50 [2]: 38200 nM

CC(C)CCn1c(CN2C(=O)N(CC(=O)OC(C)(C)C)S(=O)(=O)c3ccccc32)nc2ccccc21
EC50 [1]: 83 nM
CC50 [2]: 18400 nM

CC(C)CCn1c(Cn2c(=O)oc3ccccc32)nc2ccccc21
EC50 [1]: 44 nM
CC50 [2]: 30700 nM

CC(C)CCn1c(CN2C(=O)N(CC(=O)O)S(=O)(=O)c3ccccc32)nc2ccccc21
EC50 [1]: 263 nM
CC50 [2]: 60200 nM

O=C(O)c1ccc(Cn2c(=O)c3ccccc3n(Cc3nc4ccccc4n3CCn3cnnn3)c2=O)cc1
EC50 [1]: 550 nM
CC50 [2]: 54700 nM

COc1cc(=O)n(Cc2nc3cc(CN)ccc3n2CCCCF)c2ccccc12
EC50 [1]: 9 nM
CC50 [2]: 24000 nM
EC50 [3]: > 5000 nM

N#CCCCn1c(CN2C(=O)N(C3CC3)S(=O)(=O)c3ccccc32)nc2ccccc21
EC50 [1]: 55 nM
CC50 [2]: > 244000 nM

CC(C)CCn1c(CN2C(=O)N(C3CC3)S(=O)(=O)c3ccccc32)nc2cc(CN)ccc21
EC50 [1]: 3 nM
CC50 [2]: 7030 nM
EC50 [3]: 20 nM

O=c1c2ccccc2n(Cc2nc3ccccc3n2CCCCO)c(=O)n1C1CC1
EC50 [1]: 25 nM
CC50 [2]: 42600 nM

CC(C)CCn1c(Cn2c(=O)n(C3CC3)c(=O)c3ccccc32)nc2cc(CO)ccc21
EC50 [1]: 314 nM
CC50 [2]: 62100 nM

NCc1ccc2c(c1)nc(Cn1c(=O)n(CC(F)(F)F)c(=O)c3ccccc31)n2CCCCO
EC50 [1]: 8 nM
CC50 [2]: 52700 nM
EC50 [3]: > 500 nM

CN(C)CCn1c(CN2C(=O)CCc3ccccc32)nc2ccccc21
EC50 [1]: 456 nM
CC50 [2]: 153000 nM

CCCCNCc1ccc2c(c1)nc(Cn1c(=O)n(C3CC3)c(=O)c3ccccc31)n2CCC(C)C
EC50 [1]: > 191000 nM
CC50 [2]: 4150 nM

CC1(C)Sc2ccccc2N(Cc2nc3ccccc3n2CCCCF)C1=O
EC50 [1]: > 252000 nM
CC50 [2]: 32600 nM

COC(=O)c1ccc(Cn2c(=O)c3ccccc3n(Cc3nc4ccccc4n3CCn3cnnn3)c2=O)cc1
EC50 [1]: 170 nM
CC50 [2]: 25300 nM

CN1C(=O)N(Cc2nc3ccccc3n2CCCCO)c2ccccc2S1(=O)=O
EC50 [1]: 19 nM
CC50 [2]: 219000 nM

CC(C)CCn1c(CN2C(=O)CS(=O)(=O)c3ccccc32)nc2ccccc21
EC50 [1]: 59 nM
CC50 [2]: 63000 nM

O=C1CS(=O)(=O)c2ccccc2N1Cc1nc2ccccc2n1CCCCF
EC50 [1]: 229 nM
CC50 [2]: 211000 nM

CC(C)CCn1c(CN2C(=O)CSc3ccccc32)nc2ccccc21
EC50 [1]: 274 nM
CC50 [2]: 6780 nM

CC(C)CCn1c(CN2C(=O)Cc3ccccc32)nc2ccccc21
EC50 [1]: 32 nM
CC50 [2]: 8580 nM

O=C1N(Cc2nc3ccccc3n2CCCCF)c2ccccc2S(=O)(=O)N1C1CC1
EC50 [1]: 432 nM
CC50 [2]: 111000 nM

Cn1c(=O)c2ccccc2n(Cc2nc3ccccc3n2CCCCO)c1=O
EC50 [1]: 82 nM
CC50 [2]: 48600 nM

COc1cc(=O)n(Cc2nc3ccccc3n2CCCCF)c2ccccc12
EC50 [1]: 211 nM
CC50 [2]: 59500 nM

CC(C)CCn1c(Cn2c(=O)n(Cc3ccc(C(=O)O)cc3)c(=O)c3ccccc32)nc2ccccc21
EC50 [1]: 9 nM
CC50 [2]: 19300 nM

CC(C)CCn1c(CN2C(=O)C(CC(=O)NCc3ccccc3)c3ccccc32)nc2ccccc21 (centres undefined)
EC50 [1]: 110 nM
CC50 [2]: 720 nM

CC1(C)C(=O)N(Cc2nc3ccccc3n2CCCC#N)c2ccccc21
EC50 [1]: 19 nM
CC50 [2]: > 100000 nM

CC(C)CCn1c(CN2C(=O)C(CC(=O)O)c3ccccc32)nc2ccccc21 (centres undefined)
EC50 [1]: 705 nM
CC50 [2]: 16500 nM

CC(C)CCn1c(CN2C(=O)C(CC(=O)NCCc3ccccc3)c3ccccc32)nc2ccccc21 (centres undefined)
EC50 [1]: 379 nM
CC50 [2]: 940 nM

CC(C)CCn1c(Cn2c(=O)n(CC(=O)O)c(=O)c3ccccc32)nc2ccccc21
EC50 [1]: 1020 nM
CC50 [2]: > 221000 nM
